{"source": "paper PMC8793051", "about": "(ACS Omega, 2022)", "key": {"SNB-75": {"test_system": "SNB-75", "test": "NCI-60 SRB growth assay", "format": "cell-based, human"}, "SK-MEL-28": {"test_system": "SK-MEL-28", "test": "NCI-60 SRB growth assay", "format": "cell-based, human"}, "MALME-3M": {"test_system": "MALME-3M", "test": "NCI-60 SRB growth assay", "format": "cell-based, human"}, "T-47D": {"test_system": "T-47D", "test": "NCI-60 SRB growth assay", "format": "cell-based, human"}, "NIH3T3": {"test_system": "NIH3T3", "test": "MTT cytotoxicity assay", "format": "cell-based", "details": "Mus musculus, NIH3T3, 48 h"}, "Hu Topo I": {"molecular_target": "T1, Hu Topo I (Homo sapiens, UniProt P11387)", "T1 sequence (P11387 1-765)": "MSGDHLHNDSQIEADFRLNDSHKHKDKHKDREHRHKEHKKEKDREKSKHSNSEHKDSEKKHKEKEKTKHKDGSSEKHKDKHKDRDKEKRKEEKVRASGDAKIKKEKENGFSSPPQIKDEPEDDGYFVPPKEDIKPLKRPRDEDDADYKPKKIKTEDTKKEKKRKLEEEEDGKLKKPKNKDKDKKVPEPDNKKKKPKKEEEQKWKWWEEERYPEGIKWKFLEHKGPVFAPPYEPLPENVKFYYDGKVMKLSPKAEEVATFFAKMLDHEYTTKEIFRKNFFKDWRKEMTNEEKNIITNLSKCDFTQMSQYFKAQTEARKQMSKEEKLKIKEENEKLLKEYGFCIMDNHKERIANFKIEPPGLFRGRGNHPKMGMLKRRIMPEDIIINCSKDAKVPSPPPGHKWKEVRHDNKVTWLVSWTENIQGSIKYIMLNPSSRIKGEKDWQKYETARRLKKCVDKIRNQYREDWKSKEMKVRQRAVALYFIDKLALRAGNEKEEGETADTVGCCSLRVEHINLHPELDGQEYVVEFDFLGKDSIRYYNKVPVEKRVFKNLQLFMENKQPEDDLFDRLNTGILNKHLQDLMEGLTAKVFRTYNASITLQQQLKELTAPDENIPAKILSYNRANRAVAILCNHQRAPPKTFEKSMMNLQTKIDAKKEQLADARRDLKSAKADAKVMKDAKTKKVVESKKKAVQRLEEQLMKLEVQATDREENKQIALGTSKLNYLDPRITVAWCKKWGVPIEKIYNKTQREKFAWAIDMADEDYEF", "test": "Plasmid DNA relaxation assay"}, "HOP-62": {"test_system": "HOP-62", "test": "NCI-60 SRB growth assay", "format": "cell-based, human", "details": "HOP-62"}, "[1]": {"test_system": "oligo-2: d(CGATGTACATCG)2", "test": "Fluorescence titration", "format": "binding", "details": "20 °C, pH 7.2"}, "MDA-MB-435": {"test_system": "MDA-MB-435", "test": "NCI-60 SRB growth assay", "format": "cell-based, human"}, "OVCAR-8": {"test_system": "OVCAR-8", "test": "NCI-60 SRB growth assay", "format": "cell-based, human", "details": "OVCAR-8"}, "[2]": {"test_system": "oligo-2: d(CGATGTACATCG)2", "test": "UV thermal denaturation", "format": "binding"}, "K-562": {"test_system": "K-562", "test": "NCI-60 SRB growth assay", "format": "cell-based, human", "details": "Homo sapiens"}, "OVCAR-3": {"test_system": "OVCAR-3", "test": "NCI-60 SRB growth assay", "format": "cell-based, human"}, "SK-MEL-5": {"test_system": "SK-MEL-5", "test": "NCI-60 SRB growth assay", "format": "cell-based, human"}, "CAKI-1": {"test_system": "CAKI-1", "test": "NCI-60 SRB growth assay", "format": "cell-based, human"}, "M14": {"test_system": "M14", "test": "NCI-60 SRB growth assay", "format": "cell-based, human", "details": "M14"}, "HL-60(TB)": {"test_system": "HL-60(TB)", "test": "cells", "details": "Homo sapiens"}, "HS 578T": {"test_system": "HS 578T", "test": "NCI-60 SRB growth assay", "format": "cell-based, human"}, "SK-MEL-2": {"test_system": "SK-MEL-2", "test": "NCI-60 SRB growth assay", "format": "cell-based, human"}, "HCC-2998": {"test_system": "HCC-2998", "test": "NCI-60 SRB growth assay", "format": "cell-based, human"}, "EKVX": {"test_system": "EKVX", "test": "NCI-60 SRB growth assay", "format": "cell-based, human"}, "A549/ATCC": {"test_system": "A549/ATCC", "test": "NCI-60 SRB growth assay", "format": "cell-based, human"}, "NCI-H460": {"test_system": "NCI-H460", "test": "NCI-60 SRB growth assay", "format": "cell-based, human"}, "PC-3": {"test_system": "PC-3", "test": "NCI-60 SRB growth assay", "format": "cell-based, human"}, "SF-539": {"test_system": "SF-539", "test": "NCI-60 SRB growth assay", "format": "cell-based, human"}, "BT-549": {"test_system": "BT-549", "test": "NCI-60 SRB growth assay", "format": "cell-based, human", "details": "BT-549"}}, "data": [{"smiles": "CCCCN1CCN(c2ccc3[nH]c(-c4ccc5[nH]c(-c6ccc(C(F)(F)F)cc6)nc5c4)nc3c2)CC1", "note": "[12b, 5-(5-(4-Butylpiperazin-1-yl)-1H-benzo[d]imidazol-2-yl)2(4(trifluoromethyl)phenyl)-1H-benzo[d]imidazole]", "values": [{"measurement": "GI50", "setting": "SNB-75; Homo sapiens, SNB-75", "result": 1.05, "unit": "µM"}, {"measurement": "CC50", "setting": "SNB-75; Homo sapiens, SNB-75, read-out: LC50", "result": 4.8, "unit": "µM"}, {"measurement": "TGI", "setting": "SNB-75; SNB-75", "result": 2.25, "unit": "µM"}, {"measurement": "GI50", "setting": "SK-MEL-28; Homo sapiens, SK-MEL-28", "result": 1.7, "unit": "µM"}, {"measurement": "CC50", "setting": "SK-MEL-28; Homo sapiens, SK-MEL-28, read-out: LC50", "result": 5.9, "unit": "µM"}, {"measurement": "TGI", "setting": "SK-MEL-28; SK-MEL-28", "result": 3.1, "unit": "µM"}, {"measurement": "GI50", "setting": "MALME-3M; Homo sapiens, Malme-3M", "result": 1.4, "unit": "µM"}, {"measurement": "TGI", "setting": "MALME-3M; MALME-3M", "result": 3.0, "unit": "µM"}, {"measurement": "GI50", "setting": "T-47D; Homo sapiens, T47D", "result": 1.24, "unit": "µM"}, {"measurement": "TGI", "setting": "T-47D; T-47D", "result": 3.23, "unit": "µM"}, {"measurement": "IC50", "setting": "NIH3T3", "result": 3.2, "unit": "µM"}, {"measurement": "IC50", "setting": "Hu Topo I", "result": 16, "unit": "µM"}, {"measurement": "TGI", "setting": "HOP-62", "result": 3.05, "unit": "µM"}, {"measurement": "GI50", "setting": "HOP-62; Homo sapiens", "result": 1.3, "unit": "µM"}, {"measurement": "Ka binding affinity with oligo-2", "setting": "[1]", "result": "2 × 10^6 M^1"}, {"measurement": "GI50", "setting": "MDA-MB-435; Homo sapiens, MDA-MB-435", "result": 1.4, "unit": "µM"}, {"measurement": "CC50", "setting": "MDA-MB-435; Homo sapiens, MDA-MB-435, read-out: LC50", "result": 5.5, "unit": "µM"}, {"measurement": "TGI", "setting": "MDA-MB-435; MDA-MB-435", "result": 2.8, "unit": "µM"}, {"measurement": "GI50", "setting": "OVCAR-8; Homo sapiens", "result": 1.1, "unit": "µM"}, {"measurement": "TGI", "setting": "OVCAR-8", "result": 2.8, "unit": "µM"}, {"measurement": "ΔTm", "setting": "[2]; r = 0.5", "result": 1, "unit": "°C"}, {"measurement": "Tm", "setting": "[2]; r = 0.5, oligo 2.5 μM", "result": 57.9, "unit": "°C"}, {"measurement": "Tm", "setting": "[2]; r = 1", "result": 58.9, "unit": "°C"}, {"measurement": "ΔTm", "setting": "[2]; r = 1", "result": 2, "unit": "°C"}, {"measurement": "Tm", "setting": "[2]; r = 1.5", "result": 58.9, "unit": "°C"}, {"measurement": "ΔTm", "setting": "[2]; r = 1.5", "result": 2, "unit": "°C"}, {"measurement": "Tm", "setting": "[2]; r = 2.0", "result": 59.9, "unit": "°C"}, {"measurement": "ΔTm", "setting": "[2]; r = 2.0", "result": 3, "unit": "°C"}, {"measurement": "GI50", "setting": "K-562; K562", "result": 0.22, "unit": "µM"}, {"measurement": "CC50", "setting": "K-562; K562, read-out: LC50", "result": "> 100", "unit": "µM"}, {"measurement": "GI50", "setting": "OVCAR-3; Homo sapiens, OVCAR-3", "result": 0.21, "unit": "µM"}, {"measurement": "CC50", "setting": "OVCAR-3; Homo sapiens, OVCAR-3, read-out: LC50", "result": 0.73, "unit": "µM"}, {"measurement": "TGI", "setting": "OVCAR-3; OVCAR-3", "result": 0.4, "unit": "µM"}, {"measurement": "GI50", "setting": "SK-MEL-5; Homo sapiens, SK-MEL-5", "result": 1.6, "unit": "µM"}, {"measurement": "CC50", "setting": "SK-MEL-5; Homo sapiens, SK-MEL-5, read-out: LC50", "result": 6.2, "unit": "µM"}, {"measurement": "TGI", "setting": "SK-MEL-5; SK-MEL-5", "result": 3.2, "unit": "µM"}, {"measurement": "TGI", "setting": "CAKI-1; CAKI-1", "result": 2.58, "unit": "µM"}, {"measurement": "GI50", "setting": "CAKI-1; Homo sapiens, CAKI-1", "result": 1.29, "unit": "µM"}, {"measurement": "CC50", "setting": "CAKI-1; Homo sapiens, CAKI-1, read-out: LC50", "result": 5.15, "unit": "µM"}, {"measurement": "GI50", "setting": "M14; Homo sapiens", "result": 0.37, "unit": "µM"}, {"measurement": "TGI", "setting": "M14", "result": 2.4, "unit": "µM"}, {"measurement": "GI50", "setting": "HL-60(TB); HL-60", "result": 1.2, "unit": "µM"}, {"measurement": "CC50", "setting": "HL-60(TB); HL-60, read-out: LC50", "result": 6.6, "unit": "µM"}, {"measurement": "TGI", "setting": "HS 578T; HS578T", "result": "3.05 - μM"}, {"measurement": "GI50", "setting": "HS 578T; Homo sapiens, Hs-578T", "result": 1.26, "unit": "µM"}, {"measurement": "GI50", "setting": "SK-MEL-2; Homo sapiens, SK-MEL-2", "result": 1.8, "unit": "µM"}, {"measurement": "CC50", "setting": "SK-MEL-2; Homo sapiens, SK-MEL-2, read-out: LC50", "result": 6.3, "unit": "µM"}, {"measurement": "TGI", "setting": "SK-MEL-2; SK-MEL-2", "result": 3.3, "unit": "µM"}, {"measurement": "TGI", "setting": "HCC-2998; HCC-2998", "result": 3.5, "unit": "µM"}, {"measurement": "GI50", "setting": "HCC-2998; Homo sapiens, HCC 2998", "result": 1.8, "unit": "µM"}, {"measurement": "CC50", "setting": "HCC-2998; Homo sapiens, HCC 2998, read-out: LC50", "result": 6.6, "unit": "µM"}, {"measurement": "TGI", "setting": "EKVX", "result": 2.9, "unit": "µM"}, {"measurement": "GI50", "setting": "EKVX; Homo sapiens", "result": 1.5, "unit": "µM"}, {"measurement": "CC50", "setting": "EKVX; Homo sapiens, read-out: LC50", "result": 5.7, "unit": "µM"}, {"measurement": "TGI", "setting": "A549/ATCC; A549/ATCC", "result": 1.19, "unit": "µM"}, {"measurement": "GI50", "setting": "A549/ATCC; Homo sapiens, A549", "result": 0.35, "unit": "µM"}, {"measurement": "GI50", "setting": "NCI-H460; Homo sapiens, NCI-H460", "result": 0.23, "unit": "µM"}, {"measurement": "CC50", "setting": "NCI-H460; Homo sapiens, NCI-H460, read-out: LC50", "result": 1.62, "unit": "µM"}, {"measurement": "TGI", "setting": "NCI-H460; NCI–H460", "result": 0.5, "unit": "µM"}, {"measurement": "GI50", "setting": "PC-3; Homo sapiens, PC-3", "result": 0.86, "unit": "µM"}, {"measurement": "CC50", "setting": "PC-3; Homo sapiens, PC-3, read-out: LC50", "result": 5.5, "unit": "µM"}, {"measurement": "TGI", "setting": "PC-3; PC-3", "result": 2.31, "unit": "µM"}, {"measurement": "GI50", "setting": "SF-539; Homo sapiens, SF-539", "result": 1.6, "unit": "µM"}, {"measurement": "CC50", "setting": "SF-539; Homo sapiens, SF-539, read-out: LC50", "result": 5.8, "unit": "µM"}, {"measurement": "TGI", "setting": "SF-539; SF-539", "result": 3.05, "unit": "µM"}, {"measurement": "TGI", "setting": "BT-549", "result": 3.15, "unit": "µM"}, {"measurement": "GI50", "setting": "BT-549; Homo sapiens", "result": 1.62, "unit": "µM"}]}]}
